Paper PMC9404989, “Design and Evaluation of Short Bovine Lactoferrin-Derived Antimicrobial Peptides against Multidrug-Resistant Enterococcus faecium” (Antibiotics, 2022)

Tested on: E. faecium
Experiment: Antibacterial activity of native LfcinB6
Type: cell-based, Enterococcus faecium
Conditions: strain and source not given

RRWQWR [LfcinB6]
activity against E. faecium: inactive
